Values joined by “and” are separate entries in the source; they are usually repeats but may differ in a detail not shown here. Equal values may be shown once.
Columns and labels:
[1] = Relative stability (decay) of HOBr from NaOCl-activated HBr vs DBDMH, 600 ppm as bromine (Example 4); format: physicochemical; conditions: HOBr 600 ppm as bromine; stored in the dark; 70-75° F.
Description: The relative stability of HOBr derived from NaOCl-activated HBr and HOBr derived from DBDMH was compared side-by-side. A solution of HOBr (600 ppm as bromine) was used in the comparison because this is the amount of bromine that typically exits the commercial DBDMH feeders when the solid product is dissolved. The activity of the solutions was measured using the DPD Total chlorine colorimetric method. Solutions were stored in the dark to prevent photodegradation due to UV light exposure. The temperature ranged from 70-75° F. for the duration of the test.
The HOBr decay profiles for the 600 ppm (as bromine) solutions derived from NaOCl-activated HBr solution and DBDMH solution are plotted in FIG. 2.
Graphs of ln(Co/Ct) where Co is the initial concentration of HOBr and Ct is the concentration at day t were close to straight lines for both the DBDMH and NaOCl-activated HBr derived solutions. (the regression analysis correlation coefficient, R^2 values were close to 1). The R^2 value for the DBDMH and the NaOCl-activated HBr solutions were 0.9251 and 0.9302, respectively. […]
The half-lives of HOBr from the HBr-activated solution and the DBDMH solution were calculated by […]—the natural logarithm (ln) of 2.

[2] = tested on: Salmonella typhimurium (ATCC 14028); assay: Surface-associated bacteria remaining on chicken after 40 minute chilled immersion (Example 11); format: cell-based; conditions: chicken halves
Description: Most poultry processing facilities cool the product by submerging it for 30-60 minutes in a chiller tank containing an antimicrobial chemical. The chilled water solution is typically around 35° F. (Food Contact Notification, nos. 334 and 453). Therefore, the microbiological efficacy of the HOBr derived from NaOCl-activated HBr and the HOBr from DBDMH were compared by immersing chickens inoculated with a culture of Salmonella typhimurium (ATCC 14028) bacteria. An inoculum was prepared in the same manner as described in Example 10. This time the inoculum yielded a Salmonella typhimurium population of 3.78×10^8 CFU/ml, or log10 8.58. This was then sprayed onto both sides of the chicken halves and left to marinate for two hours. The average weight of the whole chicken used in this portion of the study was 5.20 lbs.
Each test solution was made with chilled water immediately prior to use. For each test solution and the control, two chicken halves were placed in a plastic storage bin containing one quart of test solution. A sterilized ice pack was placed in the bin to accompany the chicken and maintain water temperature. The chicken halves were allowed to sit in the chilled solution for 40 minutes at 35° F., and were turned every five minutes while gently agitating the storage bin. All containers were covered using aluminum foil to prevent degradation of the active ingredients by UV light.
In summary: • a) Control: Two chicken halves—city water • b) DBDMH: Two chicken halves—95 ppm as total bromine • c) NaOCl/HBr: Two chicken halves—100 ppm as total bromine
After spraying, each chicken half was gently shaken three times to remove excess liquid and returned to a new, sterile bag. 300 g of city water was introduced to the bag and the bag was tumbled vigorously for one minute to dislodge viable surface-associated Salmonella bacteria. The water left at the bottom of the bag was plated using 3M Petrifilm Enterobacteriaceae Plates and incubated at 35° C. for 24 hours, upon which the plates were enumerated.

[3] = tested on: E. coli O157:H7; assay: Surface-associated bacteria remaining on beef and pork after 30 second spray (Example 9); format: cell-based; conditions: for log10 (remaining): 30 second spray 50 psi, DBDMH 288 ppm Br2, NaOCl/HBr 279 ppm Br2; for % reduction / log10 reduction: vs city water control
Source text: (§1) The microbiological efficacy of the HOBr derived from NaOCl/HBr and the HOBr from DBDMH were compared against a culture of E. coli O157:H7 bacteria that was sprayed onto the surface of beef and pork meat.
(§2) Meat processing facilities commonly treat beef and pork with antimicrobial solutions for about 30 seconds by spraying the beef and pork carcasses and trim with the solution in a spray cabinet. To simulate this process, a small spray cabinet was constructed for the study. A 30-gallon, open-headed drum was equipped with three ½ inch PVC section of pipe that were vertically oriented and positioned 120 degrees apart. Each section of pipe had two spay nozzles four inches apart positioned to form a spray zone in the center of the drum. An air-assisted diaphragm pump was used to deliver the test solution into the three ½ inch PVC pipe sections and through the nozzles. A regulator on the air pump was used to adjust the pressure of the spray as necessary.
(§3) A stock solution of a field strain of E. coli O157:H7 was incubated at 35° C. for four days in Sigma Nutrient Broth for microbial culture. Three daily, consecutive transfers of the inoculums were made to ensure that a sufficient concentration of E. coli O157:H7 was available for the study. The broth and bacteria mixture was then centrifuged leaving the E. coli O157:H7 to be re-suspended in approximately 500 ml Butterfield's Buffer. The E. coli O157:H7 buffer solution was serially diluted and plated on 3M Petrifilm E. coli plates, incubated at 35° C. for 48 hours where it was determined that the E. coli O157:H7 population was 6.76×10^7 CFU/ml or log10 7.83.
The type of beef used was chuck roast, which was cut into nine equal pieces. The average weight of beef piece used in this portion of the study was 257.1 g. Nine boneless pork chops of average weight of pork 142.9 g were used.
(§4) In summary: • Beef— • a) Control: Three beef pieces—city water • b) DBDMH: Three beef pieces—288 ppm Br2 • c) NaOCl/HBr: Three beef pieces—279 ppm Br2 • Pork— • a) Control: Three pork pieces—city water • b) DBDMH: Three pork pieces—288 ppm Br2 • c) NaOCl/HBr: Three pork pieces—279 ppm Br2
(§5) During the 30 second spray, a piece of meat was held by a hook and moved up and down in the spray zone of the spray cabinet with rotation to ensure even distribution of the solution over the surface. The spray pressure was set at 50 psi.
After spraying, each meat piece was gently shaken three times to remove excess liquid and returned to a new, sterile bag containing 200 g of city water. The bag was sealed and then vigorously agitated manually for one minute to dislodge any viable surface-associated bacteria from the meat and into the aqueous phase. The water was then plated using 3M Petrifilm E. coli plates and incubated at 35° C. for 48 hours, after which the plates were enumerated. All plating for E. coli was performed within five minutes of completing the spray.

[4] = tested on: Salmonella typhimurium (ATCC 14028); assay: Surface-associated bacteria remaining on chicken after 30 second spray (Example 10); format: cell-based; conditions: chicken halves
Source text: In the processing of poultry, birds that are deemed by the USDA inspectors to have undesirable levels of fecal contamination are directed to a dedicated cabinet where they are sprayed with an antimicrobial solution. If the fecal contamination were not removed, birds harboring the pathogenic Salmonella organism would enter the human food chain. Therefore, the microbiological efficacy of the HOBr derived from NaOCl/HBr and the HOBr from DBDMH were compared on chicken inoculated with a culture of Salmonella typhimurium (ATCC 14028) bacteria.
A stock solution of Salmonella typhimurium (ATCC 14028) was incubated at 35° C. for four days in Sigma Nutrient Broth for microbial culture. Three daily, consecutive transfers of the inoculums were made to ensure that a sufficient concentration of Salmonella typhimurium was available for the study. The broth and bacteria mixture was then centrifuged leaving the Salmonella typhimurium to be re-suspended in approximately 500 ml Butterfield's Buffer. The Salmonella buffer solution was serially diluted and plated on 3M Petrifilm Enterobacteriaceae Plates, incubated at 35° C. for 24 hours where it was determined that the Salmonella typhimurium population was 2.34×10^8 or log10 8.37 CFU/ml (colony forming units per milliliter).
Three whole, uncooked chickens were purchased from a local grocer. The average weight of the whole chickens was 5.30 pounds. The organs were removed from each chicken and subsequently, each chicken was cut evenly in half down the back leaving six equal halves which contained a back, breast, thigh and leg. The chicken halves were then patted dry with a paper towel, sprayed liberally on all sides and marinated with Salmonella typhimurium—Butterfield's Buffer solution inoculums for two hours, turning occasionally.
The six chicken pieces were introduced to the spray cabinet used in Example 9. […] The concentration of HOBr was measured prior to spraying the meat pieces by using a HACH DR/700 Colorimeter and HACH 10 ml DPD Total Chlorine pillow packets. […]

[5] = tested on: E. coli O157:H7; assay: Microbiological quality of wash water after spraying inoculated beef and pork (Example 9); format: cell-based; conditions: for log10 (remaining): 30 second spray 50 psi; for log10 reduction: vs city water control
Source text: as §1, §2, §3, §4, §5
Immediately after each piece was sprayed, a sample of the wash solution was taken from the bottom of the spray cabinet drum for microbial analysis. The solutions were plated on 3M Petrifilm E. coli plates and incubated at 35° C. for 48 hours.

[6] = Octanol-Water Partition Coefficient of HOBr (Example 13); format: physicochemical
Description: In order to quantify the lipophilicity of HOBr solutions prepared from NaOCl-activated HBr, the Octanol-Water Partition Coefficient was determined.
The Octanol-Water Partition Coefficient is defined as:
Pow=Octanol-Water Partition Coefficient. Commonly the logarithm of this number is reported as Log Pow
A high concentration of a HOBr solution was prepared by introducing sufficient NaOCl to activate 3.34 ml 48% HBr in 900 ml RO water until the pH was 7.23. By iodometric titration, the solution was determined to contain 5625 ppm as Br2. The slightly yellow activated solution (25 ml) was poured into an Erlenmeyer flask containing octanol (25 ml). This was mixed for two minutes using a high-speed magnetic stirrer after which the two phases were allowed to separate. All of the yellow color had phase-separated into the top octanol layer. […] The Pow was calculated to be 1.97. This was repeated for lower concentrations of HOBr by preparing a stock solution of 300 ppm as Br2 using 0.2 ml 48% HBr in 900 ml RO water and adding sufficient NaOCl bleach until the pH was 7.33. From the 300 ppm as Br2 stock solution, solutions of 200 and 100 ppm as Br2 were prepared.
A saturated solution of DBDMH was prepared by slurrying DBDMH (1 g) powder in RO water (99 g) and stirring rapidly for 20 minutes. Undissolved solids were removed by gravity filtration. By iodometric titration, the solution was determined to contain 1170 ppm as Br2. The DBDMH solution (25 ml) was poured into an Erlenmeyer flask containing octanol (25 ml). This was mixed for two minutes using a high-speed magnetic stirrer after which the two phases were allowed to separate. […] The Pow was calculated to be 0.808. The 1170 ppm as Br2 stock solution was then used to prepare solution of 300, 200 and 100 ppm as Br2 solutions.

[7] = immersion 40 minutes, vs city water control
[8] = 30 second spray, vs city water control
[9] = Concentration HOBr (as Br2) 100
[10] = Concentration HOBr (as Br2) 200
[11] = Concentration HOBr (as Br2) 300
[12] = Concentration HOBr (as Br2) 1170 (saturated solution)

Structure (SMILES): CC1(C)C(=O)N(Br)C(=O)N1Br [DBDMH, 1,3-dibromo-5,5-dimethylhydantoin]
- rate constant of HOBr decay [1]: 0.051 day⁻¹
- log10 (remaining) ([2]; immersion 40 minutes at 35° F., DBDMH 95 ppm, NaOCl/HBr 100 ppm as total bromine, control 6.54): 6.25 log10 CFU/ml
- % reduction [2, 7]: 48.71%
- log10 reduction [2, 7]: 0.29 log10 CFU/ml
- log10 (remaining) ([3]; on beef, control 6.15): 5.56 log10
- % reduction ([3]; on beef): 74.30%
- log10 reduction ([3]; on beef): 0.59 log10
- log10 (remaining) ([3]; on pork, control 6.43): 5.71 log10
- % reduction ([3]; on pork): 80.95%
- log10 reduction ([3]; on pork): 0.72 log10
- log10 (remaining) ([4]; 30 second spray 40 psi, DBDMH 295 ppm, NaOCl/HBr 275 ppm as total bromine, control 6.15): 5.85 log10 CFU/ml
- % reduction [4, 8]: 49.88%
- log10 reduction [4, 8]: 0.30 log10 CFU/ml
- log10 (remaining) ([5]; beef, DBDMH 288 ppm Br2, NaOCl/HBr 279 ppm Br2, control 5.01): 0.48 log10
- log10 reduction ([5]; beef): 4.53 log10
- log10 (remaining) ([5]; pork, DBDMH 288 ppm Br2, NaOCl/HBr 279 ppm Br2, control 5.18): 0.99 log10
- log10 reduction ([5]; pork): 4.19 log10
- Concentration in aqueous phase after partitioning into octanol [6, 9]: 19.125 ppm as Br2
- Pow HOBr [6, 9]: 0.645
- Concentration in aqueous phase after partitioning into octanol [6, 10]: 34.99 ppm as Br2
- Pow HOBr [6, 10]: 0.719
- Concentration in aqueous phase after partitioning into octanol [6, 11]: 50.74 ppm as Br2
- Pow HOBr [6, 11]: 0.731
- Concentration in aqueous phase after partitioning into octanol [6, 12]: 159.7 ppm as Br2 and 157.5 ppm as Br2
- Pow HOBr [6, 12]: 0.808

— US20110200685A1, “Methods and compositions for the reduction of pathogenic microorganisms from meat and poultry carcasses, trim and offal” (priority 2010, published 2011)
